Measurements as given in ChEMBL document CHEMBL1201862, “PubChem BioAssay data set” (2004).
Active and inactive are the calls of the source.

Columns and labels:
[1] = target: T1, Low molecular weight phosphotyrosine protein phosphatase (Homo sapiens, UniProt P24666); type: functional; conditions: read-out: IC50_Mean;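 further: Dose-response confirmation assay measuring inhibition of LMPTP enzyme activity by fluorescence intensity read-out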
T1 sequence (P24666 whole entry): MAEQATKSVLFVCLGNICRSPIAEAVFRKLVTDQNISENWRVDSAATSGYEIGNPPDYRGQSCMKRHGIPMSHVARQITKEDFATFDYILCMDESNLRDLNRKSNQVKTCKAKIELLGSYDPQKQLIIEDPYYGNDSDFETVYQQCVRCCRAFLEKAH

[2] = target: T2, Short transient receptor potential channel 4 (Mus musculus, UniProt Q9QUQ5); assay: mouse TRPC4 channel activators, dose response, cell-based, HEK293 TRPC4/mu-opioid, Fluo-4 calcium (AID 434937); type: functional
T2 sequence (Q9QUQ5 whole entry): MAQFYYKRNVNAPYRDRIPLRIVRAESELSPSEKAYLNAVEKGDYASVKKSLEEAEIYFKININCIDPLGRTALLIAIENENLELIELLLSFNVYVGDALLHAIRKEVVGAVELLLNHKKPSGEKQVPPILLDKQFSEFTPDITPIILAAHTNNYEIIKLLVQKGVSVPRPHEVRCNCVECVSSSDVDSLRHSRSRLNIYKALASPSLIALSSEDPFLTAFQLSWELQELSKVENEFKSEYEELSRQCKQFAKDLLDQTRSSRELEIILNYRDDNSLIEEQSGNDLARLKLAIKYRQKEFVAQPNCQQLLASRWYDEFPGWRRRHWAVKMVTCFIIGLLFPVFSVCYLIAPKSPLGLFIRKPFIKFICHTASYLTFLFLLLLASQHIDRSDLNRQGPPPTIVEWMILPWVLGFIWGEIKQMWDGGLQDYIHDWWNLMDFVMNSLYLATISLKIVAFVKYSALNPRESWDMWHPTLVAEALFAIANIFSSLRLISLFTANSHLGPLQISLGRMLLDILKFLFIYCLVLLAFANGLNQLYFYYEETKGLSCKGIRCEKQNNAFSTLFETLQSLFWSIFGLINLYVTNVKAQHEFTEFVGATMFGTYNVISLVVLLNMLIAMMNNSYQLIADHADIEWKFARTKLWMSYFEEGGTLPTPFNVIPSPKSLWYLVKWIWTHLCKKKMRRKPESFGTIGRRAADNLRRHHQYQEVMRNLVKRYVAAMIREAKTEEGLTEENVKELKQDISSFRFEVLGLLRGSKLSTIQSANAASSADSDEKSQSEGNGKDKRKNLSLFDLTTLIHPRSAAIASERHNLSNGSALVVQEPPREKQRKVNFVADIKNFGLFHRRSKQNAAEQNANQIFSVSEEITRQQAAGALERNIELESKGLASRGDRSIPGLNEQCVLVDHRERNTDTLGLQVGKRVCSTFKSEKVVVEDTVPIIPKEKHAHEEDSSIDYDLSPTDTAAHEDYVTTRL

[3] = target: Ras and Rab interactor 1/Tyrosine-protein kinase ABL1 (Homo sapiens, UniProt P00519+Q13671); type: functional;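 further: biochemical TR-FRET dose-response test measuring inhibition of binding between Rin1 and Abl proteins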
Ras and Rab interactor 1/Tyrosine-protein kinase ABL1, sequence (P00519 whole entry): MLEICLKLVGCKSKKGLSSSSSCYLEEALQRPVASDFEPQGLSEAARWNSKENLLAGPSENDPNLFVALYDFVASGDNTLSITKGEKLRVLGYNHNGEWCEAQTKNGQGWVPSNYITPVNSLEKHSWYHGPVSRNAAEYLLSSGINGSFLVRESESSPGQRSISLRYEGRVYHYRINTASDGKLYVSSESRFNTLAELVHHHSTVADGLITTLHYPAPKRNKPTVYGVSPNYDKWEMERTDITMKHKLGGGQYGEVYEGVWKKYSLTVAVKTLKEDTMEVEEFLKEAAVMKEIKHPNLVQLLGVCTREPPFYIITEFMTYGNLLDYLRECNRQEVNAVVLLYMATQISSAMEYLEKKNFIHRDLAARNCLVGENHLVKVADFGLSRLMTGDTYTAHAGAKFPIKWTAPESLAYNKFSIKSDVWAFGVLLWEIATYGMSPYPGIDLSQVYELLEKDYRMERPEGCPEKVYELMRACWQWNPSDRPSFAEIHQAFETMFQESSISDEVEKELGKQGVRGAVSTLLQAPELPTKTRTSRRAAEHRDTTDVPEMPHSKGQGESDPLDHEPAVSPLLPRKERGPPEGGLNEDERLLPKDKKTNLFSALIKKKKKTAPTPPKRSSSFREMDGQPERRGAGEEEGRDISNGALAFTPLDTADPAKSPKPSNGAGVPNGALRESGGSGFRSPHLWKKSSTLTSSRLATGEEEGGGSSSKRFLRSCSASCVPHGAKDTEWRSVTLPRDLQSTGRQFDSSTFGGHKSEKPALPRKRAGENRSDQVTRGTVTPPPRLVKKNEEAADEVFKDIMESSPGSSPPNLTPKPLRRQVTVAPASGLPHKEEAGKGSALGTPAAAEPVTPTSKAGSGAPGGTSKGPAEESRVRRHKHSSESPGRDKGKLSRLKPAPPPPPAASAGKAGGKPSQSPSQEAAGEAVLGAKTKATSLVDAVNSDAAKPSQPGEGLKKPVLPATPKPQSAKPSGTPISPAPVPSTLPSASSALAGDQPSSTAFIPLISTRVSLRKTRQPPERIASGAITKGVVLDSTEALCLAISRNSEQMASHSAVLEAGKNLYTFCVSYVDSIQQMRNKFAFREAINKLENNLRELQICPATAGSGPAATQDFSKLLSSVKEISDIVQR
Ras and Rab interactor 1/Tyrosine-protein kinase ABL1, sequence (Q13671 whole entry): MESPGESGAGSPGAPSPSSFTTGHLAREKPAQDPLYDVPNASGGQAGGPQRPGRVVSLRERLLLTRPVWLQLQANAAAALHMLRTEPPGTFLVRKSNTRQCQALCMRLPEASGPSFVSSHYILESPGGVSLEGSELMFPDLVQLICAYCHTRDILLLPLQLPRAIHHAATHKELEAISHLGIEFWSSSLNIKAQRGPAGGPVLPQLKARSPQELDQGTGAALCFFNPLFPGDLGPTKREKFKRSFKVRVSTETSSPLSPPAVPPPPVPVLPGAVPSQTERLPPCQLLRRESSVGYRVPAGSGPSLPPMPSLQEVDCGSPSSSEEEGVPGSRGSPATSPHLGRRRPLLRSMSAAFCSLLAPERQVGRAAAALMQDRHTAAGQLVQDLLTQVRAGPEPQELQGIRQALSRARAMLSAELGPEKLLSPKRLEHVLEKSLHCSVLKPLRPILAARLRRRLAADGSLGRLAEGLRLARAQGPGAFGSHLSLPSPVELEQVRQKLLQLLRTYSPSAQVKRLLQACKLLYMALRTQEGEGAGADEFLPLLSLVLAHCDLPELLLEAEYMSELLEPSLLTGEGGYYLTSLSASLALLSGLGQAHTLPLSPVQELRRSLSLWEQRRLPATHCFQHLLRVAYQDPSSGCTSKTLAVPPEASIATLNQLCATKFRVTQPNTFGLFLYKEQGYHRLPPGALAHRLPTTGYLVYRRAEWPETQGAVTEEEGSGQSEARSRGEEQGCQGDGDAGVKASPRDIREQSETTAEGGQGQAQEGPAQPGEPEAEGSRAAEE

[4] = THP-1 cell cytotoxicity, dose response, cytotoxicity control for Vif-APOBEC3G degradation inhibitor project, THP-1 cells (AID 1117359); type: functional; conditions: Human immunodeficiency virus 1, THP-1
[5] = system: Vero; assay: cells; type: functional, cell-based; conditions: Chlorocebus sabaeus
[6] = system: Vero; assay: cells; type: functional; conditions: Chlorocebus sabaeus
[7] = target: Nucleotide-binding oligomerization domain-containing protein 2 (Homo sapiens, UniProt Q9HC29); assay: NOD2 signaling inhibitors, cell-based, luminescence, uHTS, HEK293 (AID 1566); type: functional
Nucleotide-binding oligomerization domain-containing protein 2, sequence (Q9HC29 whole entry, the tested form may be a part): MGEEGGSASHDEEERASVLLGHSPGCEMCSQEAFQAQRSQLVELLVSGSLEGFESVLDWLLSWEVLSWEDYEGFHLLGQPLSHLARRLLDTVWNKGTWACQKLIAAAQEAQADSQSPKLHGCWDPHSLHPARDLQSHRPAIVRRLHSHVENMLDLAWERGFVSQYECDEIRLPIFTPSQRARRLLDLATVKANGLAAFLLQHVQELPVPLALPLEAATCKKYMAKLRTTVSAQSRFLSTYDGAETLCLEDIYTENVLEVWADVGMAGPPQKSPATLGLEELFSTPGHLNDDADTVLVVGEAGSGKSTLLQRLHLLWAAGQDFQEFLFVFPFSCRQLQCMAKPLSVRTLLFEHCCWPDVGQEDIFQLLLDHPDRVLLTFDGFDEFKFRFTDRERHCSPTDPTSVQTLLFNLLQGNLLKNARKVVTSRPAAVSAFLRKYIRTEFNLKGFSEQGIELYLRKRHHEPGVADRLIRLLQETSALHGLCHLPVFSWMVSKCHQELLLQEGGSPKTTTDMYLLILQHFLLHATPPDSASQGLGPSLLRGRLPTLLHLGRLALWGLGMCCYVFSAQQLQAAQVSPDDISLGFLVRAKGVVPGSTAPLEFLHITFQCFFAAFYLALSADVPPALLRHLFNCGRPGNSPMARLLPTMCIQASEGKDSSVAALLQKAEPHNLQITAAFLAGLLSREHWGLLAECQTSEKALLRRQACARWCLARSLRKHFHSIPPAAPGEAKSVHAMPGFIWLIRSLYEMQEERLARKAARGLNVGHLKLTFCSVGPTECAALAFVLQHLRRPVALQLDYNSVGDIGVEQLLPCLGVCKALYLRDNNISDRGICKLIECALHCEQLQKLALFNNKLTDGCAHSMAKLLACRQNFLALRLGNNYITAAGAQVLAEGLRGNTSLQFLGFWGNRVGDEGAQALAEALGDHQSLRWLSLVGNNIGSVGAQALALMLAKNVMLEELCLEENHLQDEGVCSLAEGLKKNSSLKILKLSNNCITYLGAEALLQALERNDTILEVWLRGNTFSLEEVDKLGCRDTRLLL

[8] = system: HEK293; assay: NOD1 signaling inhibitors, primary screen, cell-based, luminescence, uHTS (AID 1578); type: functional; conditions: Homo sapiens
[9] = system: HEK293; assay: cells; type: functional, cell-based; conditions: Homo sapiens
[10] = system: HEK293; assay: cells; type: functional, cell-based; conditions: Homo sapiens; remark: listed apart in the source
[11] = system: HEK293; assay: cells; type: functional, cell-based; conditions: Homo sapiens; remark: listed apart in the source
[12] = target: T3, Heat shock factor protein 1 (Mus musculus, UniProt P38532); assay: HSF1 potentiators in luciferase reporter cells, confirmation, cell-based, NIH3T3, luminescence, dose retest (AID 435004); type: functional;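 further: stress induced by proteasome inhibitor MG132 added 30 min after compound; luciferase reporter driven by HSF1 response element in NIH3T3 cells; actives raise luminescence as potentiators of the MG132 stress response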
T3 sequence (P38532 whole entry): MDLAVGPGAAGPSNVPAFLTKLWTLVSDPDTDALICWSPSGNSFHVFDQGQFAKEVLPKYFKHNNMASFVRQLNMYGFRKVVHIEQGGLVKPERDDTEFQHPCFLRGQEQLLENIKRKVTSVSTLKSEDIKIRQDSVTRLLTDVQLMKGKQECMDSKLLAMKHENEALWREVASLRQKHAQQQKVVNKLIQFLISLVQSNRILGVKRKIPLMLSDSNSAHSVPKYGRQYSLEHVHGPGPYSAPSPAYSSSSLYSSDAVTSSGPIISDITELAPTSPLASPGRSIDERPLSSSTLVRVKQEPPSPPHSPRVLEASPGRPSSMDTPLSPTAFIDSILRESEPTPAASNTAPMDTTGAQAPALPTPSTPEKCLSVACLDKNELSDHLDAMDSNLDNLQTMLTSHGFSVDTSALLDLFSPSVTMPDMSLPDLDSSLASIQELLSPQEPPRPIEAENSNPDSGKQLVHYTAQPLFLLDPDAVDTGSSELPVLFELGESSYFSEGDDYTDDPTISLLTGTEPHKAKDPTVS

[13] = system: HEK293; assay: NOD2 signaling inhibitors in MDP-stimulated cells, cell-based, uHTS, luminescence (AID 2001); type: functional; conditions: Homo sapiens
[14] = HepG2 cell cytotoxicity, dose response, cytotoxicity control, cherry-picked samples (AID 1159577); type: functional, cell-based
[15] = P. falciparum Dd2 growth inhibitors, dose response, SYBR Green, cherry-picked samples (AID 1159567); type: functional, cell-based
[16] = NIH-3T3 fibroblast cytotoxicity, dose response, cytotoxicity control, cell-based, fluorescence, Alamar Blue, secondary assay (AID 2327); type: functional;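 further: NIH-3T3 mouse fibroblasts cultured with fluconazole at 8 µg/mL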
[17] = target: Glucose-6-phosphate 1-dehydrogenase (Homo sapiens, UniProt P11413); assay: human G6PD enzyme inhibitors, dose response, selectivity assay for P. falciparum G6PD inhibitor project, biochemical, fluorescence (AID 504792); type: functional
Glucose-6-phosphate 1-dehydrogenase, sequence (P11413 whole entry): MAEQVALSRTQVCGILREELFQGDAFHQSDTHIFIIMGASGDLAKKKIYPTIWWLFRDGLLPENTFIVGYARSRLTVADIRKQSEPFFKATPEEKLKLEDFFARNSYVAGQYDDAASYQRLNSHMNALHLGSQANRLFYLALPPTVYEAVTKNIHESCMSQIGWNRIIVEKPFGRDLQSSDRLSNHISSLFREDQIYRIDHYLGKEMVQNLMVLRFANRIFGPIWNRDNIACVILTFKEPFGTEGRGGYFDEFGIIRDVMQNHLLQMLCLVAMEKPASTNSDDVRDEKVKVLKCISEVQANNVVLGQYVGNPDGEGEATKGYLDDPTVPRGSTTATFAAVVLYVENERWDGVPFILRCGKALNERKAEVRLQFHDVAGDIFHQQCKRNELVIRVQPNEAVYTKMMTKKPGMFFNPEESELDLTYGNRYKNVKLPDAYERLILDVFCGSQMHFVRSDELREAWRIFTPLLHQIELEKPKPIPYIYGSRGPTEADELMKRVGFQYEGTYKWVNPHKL

[18] = Luminescence Cell-Based Dose Retest to Confirm Inhibitors of Cancer Stem Cells. [Related pubchem assays (depositor defined):AID2717, AID2721]; type: functional; conditions: Homo sapiens
[19] = target: FAD-linked sulfhydryl oxidase ALR (Homo sapiens, UniProt P55789); assay: inhibitors of human ALR sulfhydryl oxidase, dose response, biochemical, H2O2 detection, luminescence, cherry-pick (AID 493248)
FAD-linked sulfhydryl oxidase ALR, sequence (P55789 whole entry): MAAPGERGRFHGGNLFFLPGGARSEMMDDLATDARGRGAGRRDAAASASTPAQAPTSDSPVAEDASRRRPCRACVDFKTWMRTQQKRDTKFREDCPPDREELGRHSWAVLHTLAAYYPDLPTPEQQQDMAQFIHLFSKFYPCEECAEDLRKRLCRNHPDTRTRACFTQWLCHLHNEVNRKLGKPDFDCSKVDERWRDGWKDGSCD

[20] = C. albicans growth with fluconazole, confirmation, fluorescence, retest (AID 2467); type: functional, cell-based
[21] = cytotoxicity toward NIH3T3 fibroblasts, dose response, counter-screen, cell-based, ATP luminescence, mouse fibroblasts (AID 2010); type: functional;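 further: cells exposed to compound for about 90 hours before reading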
[22] = inhibitors of intracellular T. cruzi replication, confirmation, NIH3T3 host cells, beta-gal luminescence (AID 2044); type: functional, cell-based;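 further: intracellular parasites grown in NIH/3T3 mouse fibroblasts as host cells; luminescent beta-galactosidase reporter signal from transgenic T. cruzi replicating inside host cells; inhibitors lower the luminescence signal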
[23] = HEp-2 cell cytotoxicity, dose response, cytotoxicity control for RSV inhibitor project, HTS (AID 2410); type: functional; conditions: human respiratory syncytial virus

For NC1=NC2(CCN(Cc3ccccc3)CC2)n2c(nc3ccccc32)N1, the IC50 [1] was 27.1 µM (inactive) and the EC50 [2] was 0.299 µM (active).
With CN(C(=O)c1ccc(NC(=O)Cc2cccc(NC(=O)C3CCN(C(=O)c4ccccc4)CC3)c2)cc1)C1CC1 the IC50 [3] was 15.3 µM (inactive).
With Cc1cc(C(=O)CCl)c(C)n1-c1c(C)n(C)n(-c2ccccc2)c1=O the CC50 [4] was > 40 µM (active).
In the case of CCOc1ccccc1Nc1nnc(SC(C)C(=O)Nc2nc(-c3ccccc3)cs2)s1 (configuration not stated), the IC50 [5] is reported as > 12.5 µM (active).
For CCOc1ccc(N(CC(=O)N2CCC(Cc3ccccc3)CC2)S(C)(=O)=O)cc1, the CC50 [4] was > 40 µM (active).
With CN(C(=O)CCN1C(=O)/C(=C/c2ccccc2)SC1=S)C1CCS(=O)(=O)C1 (configuration not stated) the CC50 [6] was 21.2 µM (active).
In the case of Cc1ccc(C(=O)NC(=C(Cl)Cl)S(=O)(=O)c2ccc(Cl)cc2)cc1, the EC50 [7] is reported as > 20 µM (inactive), the EC50 [8] is reported as 2.2 µM (active) and the IC50 [9] is reported as > 20 µM (inactive). The IC50 [10] was 3.42 µM (active), the IC50 [11] was > 20 µM (inactive) and the EC50 [12] was 7.82 µM (active). For the same compound, the IC50 [13] was 5.03 µM (inactive).
With COc1ccc(S(=O)(=O)N2CCC3(CC2)CN(C(=O)CN(C)C)[C@@H](CO)c2c3c3ccc(OC)cc3n2C)cc1 the AC50 [14] was 18.8 µM (active) and the AC50 [15] was 2.53 µM (active).
With CC1(C)CN(c2ccccc2)N(C(=O)c2ccc(C#N)cc2)C1=O the EC50 [16] was 4.88 µM (active), the IC50 [17] was > 80 µM (inactive) and the AC50 [18] was 3.56 µM (active). The AC50 [19] was 1.72 µM (active) and the EC50 [20] was > 38 µM (not active).
For Cc1c(CCO)c(=O)[nH]n1C(=O)c1c(F)cccc1F, the CC50 [6] was > 25 µM (active) and the IC50 [5] was 15.4 µM (active).
For COC(=O)c1ccc(CSc2nnc(CNC(=O)COc3ccc(Cl)cc3)o2)o1, the IC50 [3] was 21.4 µM (inactive).
In the case of COc1ccc(C2c3c(nc[nH]c3=O)Oc3nc[nH]c(=O)c32)cc1, the IC50 [3] is reported as 2.87 µM (active).
With O=C(C[C@H]1C[C@@H]2c3cc(NC(=O)c4cccnc4)ccc3O[C@@H]2[C@@H](CO)O1)NCc1ccc(Oc2ccccc2)cc1 the AC50 [14] was > 39 µM (inactive) and the AC50 [15] was 13.7 µM (active).
With Cc1cccc(-c2ccc([C@@H]3[C@@H](CO)N4CCCCN(CCC(F)(F)F)C[C@H]34)cc2)c1 the AC50 [14] was 8.79 µM (active) and the AC50 [15] was 0.801 µM (active).
For CC1(OC(=O)C2CCCC2)C(=O)C=C2C=C(c3ccsc3)N(CC3CC3)C=C2C1=O (configuration not stated), the IC50 [17] was 64.3 µM (inactive).
In the case of O=C(Cc1ccc(Br)cc1)Nc1ncc([N+](=O)[O-])s1, the EC50 [7] is reported as > 20 µM (inactive), the EC50 [8] is reported as 3.15 µM (active) and the IC50 [9] is reported as > 20 µM (inactive). For the same compound, the IC50 [10] was 6.55 µM (active), the EC50 [21] was > 60 µM (not active) and the IC50 [11] was > 20 µM (inactive). The EC50 [22] was 0.553 µM (active) and the IC50 [13] was 7.9 µM (inactive).
For Cc1sc(NC(=S)NC(=O)c2ccc(C(C)(C)C)cc2)c(C#N)c1C, the CC50 [23] was 46.8 µM (active) and the IC50 [5] was 13.9 µM (active).
In the case of CC(C)NC(=O)N1CCCCN2[C@H](CO)[C@@H](c3ccc(C#C[C@@H](C)O)cc3)[C@@H]2C1, the AC50 [14] is reported as > 39 µM (inactive) and the AC50 [15] is reported as 27.8 µM (active).
